Measured values published in US9326666B2, “Multi-channel medical imaging system” (Beth Israel Deaconess Medical Center, priority 2002, dated 2016).

Key:
[1] = In vivo early half-life of dye in blood; settings: small molecule form
Source text: This permits multiple injections during a single procedure.

[2] = Solubility of dye in blood; settings: small molecule form
[3] = tested on: mitochondria and/or endoplasmic reticulum; assay: Partitioning of dye into subcellular organelles; assay type: cell-based
Source text: (§1) More generally, IR-786 may be used for non-radioactive imaging of areas of ischemia in the living heart, or other visualization of the viability of other tissues.

[4] = Imaging of blood flow in the heart of a living laboratory rat after thoracotomy; assay type: in vivo
Source text: as §1

Row | Structure (SMILES) | in vivo early half-life [1] | solubility in blood [2] | partitioning into mitochondria and/or endoplasmic reticulum [3] | imaging of blood flow in the heart [4]
1 | CC1(C)C(/C=C/C=C/C=C/C=C2\N(CCCCS(=O)(=O)O)c3ccc4ccccc4c3C2(C)C)=[N+](CCCCS(=O)(=O)[O-])c2ccc3ccccc3c21 [Indocyanine green, indocyanine green] | shorter half-life | somewhat less soluble in blood | – | –
2 | CN1C(=CC=C2CCCC(C=CC3=[N+](C)c4ccccc4C3(C)C)=C2Cl)C(C)(C)c2ccccc21.[O-][Cl+3]([O-])([O-])[O-] [IR-786] | – | – | partitions efficiently into mitochondria and/or endoplasmic reticulum in a concentration-dependent manner | successfully applied
